In patent publication US20260217701A1, “SELECTIVE BET INHIBITORS AND USES THEREOF” (Tay Therapeutics Limited, priority 2022, published 2026):
Where “and” joins values, the source holds several entries; their conditions need not be identical. Equal entries are not always repeated.

Test system: collagen-induced arthritis
Test: Collagen-induced arthritis (CIA) model: clinical scores and paw volume
Format: in vivo, Lewis rats
Details: for Percent Inhibition in clinical score (Mean ± SD) / Percent Inhibition in paw volume (Mean ± SD): CIA rats; for Overall Clinical Score: individual animals 1-8
[1] = Day 0, L paw, group 5 CIA + Compound A 1 mg/kg
[2] = Day 0, L paw, group 6 CIA + Compound A 3 mg/kg
[3] = Day 0, L paw, group 7 CIA + Compound A 10 mg/kg
[4] = Day 0, R paw, group 5 CIA + Compound A 1 mg/kg
[5] = Day 0, R paw, group 6 CIA + Compound A 3 mg/kg
[6] = Day 0, R paw, group 7 CIA + Compound A 10 mg/kg
[7] = Day 0, CIA + Compound A 1 mg/kg
[8] = Day 0, CIA + Compound A 3 mg/kg
[9] = Day 0, CIA + Compound A 10 mg/kg
[10] = Day 6, L paw, group 5 CIA + Compound A 1 mg/kg
[11] = Day 6, L paw, group 6 CIA + Compound A 3 mg/kg
[12] = Day 6, L paw, group 7 CIA + Compound A 10 mg/kg
[13] = Day 6, R paw, group 5 CIA + Compound A 1 mg/kg
[14] = Day 6, R paw, group 6 CIA + Compound A 3 mg/kg
[15] = Day 6, R paw, group 7 CIA + Compound A 10 mg/kg
[16] = Day 6, CIA + Compound A 1 mg/kg
[17] = Day 6, CIA + Compound A 3 mg/kg
[18] = Day 6, CIA + Compound A 10 mg/kg
[19] = Day 12, L paw, group 5 CIA + Compound A 1 mg/kg
[20] = Day 12, L paw, group 6 CIA + Compound A 3 mg/kg
[21] = Day 12, L paw, group 7 CIA + Compound A 10 mg/kg
[22] = Day 12, R paw, group 5 CIA + Compound A 1 mg/kg
[23] = Day 12, R paw, group 6 CIA + Compound A 3 mg/kg
[24] = Day 12, R paw, group 7 CIA + Compound A 10 mg/kg
[25] = Day 12, CIA + Compound A 1 mg/kg
[26] = Day 12, CIA + Compound A 3 mg/kg

Structure (SMILES): Cn1cc(-c2ccccc2)c(-c2cn(C)c(=O)c3[nH]c(-c4cnn(C(F)(F)F)c4)cc23)cc1=O [Compound A, 6-methyl-4-(1-methyl-2-oxo-5-phenyl-1,2-dihydropyridin-4-yl)-2-(1-(trifluoromethyl)-1H-pyrazol-4-yl)-1,6-dihydro-7H-pyrrolo[2,3-c]pyridin-7-one]
- Reduction in clinical score compared to CIA+placebo (10 mg/kg PO QD, Day 21): > 70%
- Reduction in paw volume compared to CIA+placebo (10 mg/kg PO QD, Day 21): > 70%
- Anti-inflammatory activity versus CIA placebo and CIA+10 mg/kg GSK620 (1, 3, and 10 mg/kg): superior (statistically)
- Percent Inhibition in clinical score (Mean ± SD) (1 mg/kg): 60 ± 21%
- Percent Inhibition in paw volume (Mean ± SD) (1 mg/kg): 58 ± 23%
- Percent Inhibition in clinical score (Mean ± SD) (3 mg/kg): 70 ± 8%
- Percent Inhibition in paw volume (Mean ± SD) (3 mg/kg): 75 ± 12%
- Average animal paw volume [1]: 1.33 mL
- Average animal paw volume percent change (%) [1]: 0.00%
- Average animal paw volume [2]: 1.32 mL
- Average animal paw volume percent change (%) [2]: 0.00%
- Average animal paw volume [3]: 1.32 mL
- Average animal paw volume percent change (%) [3]: 0.00%
- Average animal paw volume [4]: 1.33 mL
- Average animal paw volume percent change (%) [4]: 0.00%
- Average animal paw volume [5]: 1.31 mL
- Average animal paw volume percent change (%) [5]: 0.00%
- Average animal paw volume [6]: 1.31 mL
- Average animal paw volume percent change (%) [6]: 0.00%
- Average detailed clinical score, left forelimb [7]: 0.00
- Average detailed clinical score, left hind limb [7]: 0.00
- Average detailed clinical score, right forelimb [7]: 0.00
- Average detailed clinical score, right hind limb [7]: 0.00
- Average detailed clinical score, score [7]: 0.00
- Average overall clinical score [7]: 0
- Overall Clinical Score [7]: 0
- Average detailed clinical score, left forelimb [8]: 0.00
- Average detailed clinical score, left hind limb [8]: 0.00
- Average detailed clinical score, right forelimb [8]: 0.00
- Average detailed clinical score, right hind limb [8]: 0.00
- Average detailed clinical score, score [8]: 0.00
- Average overall clinical score [8]: 0
- Overall Clinical Score [8]: 0
- Average detailed clinical score, left forelimb [9]: 0.00
- Average detailed clinical score, left hind limb [9]: 0.00
- Average detailed clinical score, right forelimb [9]: 0.00
- Average detailed clinical score, right hind limb [9]: 0.00
- Average detailed clinical score, score [9]: 0.00
- Average overall clinical score [9]: 0
- Average animal paw volume [10]: 1.35 mL
- Average animal paw volume percent change (%) [10]: 1.60%
- Average animal paw volume [11]: 1.34 mL
- Average animal paw volume percent change (%) [11]: 1.44%
- Average animal paw volume [12]: 1.34 mL
- Average animal paw volume percent change (%) [12]: 1.64%
- Average animal paw volume [13]: 1.35 mL
- Average animal paw volume percent change (%) [13]: 1.41%
- Average animal paw volume [14]: 1.34 mL
- Average animal paw volume percent change (%) [14]: 1.63%
- Average animal paw volume [15]: 1.33 mL
- Average animal paw volume percent change (%) [15]: 1.59%
- Average detailed clinical score, left forelimb [16]: 0.00
- Average detailed clinical score, left hind limb [16]: 0.00
- Average detailed clinical score, right forelimb [16]: 0.00
- Average detailed clinical score, right hind limb [16]: 0.00
- Average detailed clinical score, score [16]: 0.00
- Average overall clinical score [16]: 0
- Overall Clinical Score [16]: 0
- Average detailed clinical score, left forelimb [17]: 0.00
- Average detailed clinical score, left hind limb [17]: 0.00
- Average detailed clinical score, right forelimb [17]: 0.00
- Average detailed clinical score, right hind limb [17]: 0.00
- Average detailed clinical score, score [17]: 0.00
- Average overall clinical score [17]: 0
- Overall Clinical Score [17]: 0
- Average detailed clinical score, left forelimb [18]: 0.00
- Average detailed clinical score, left hind limb [18]: 0.00
- Average detailed clinical score, right forelimb [18]: 0.00
- Average detailed clinical score, right hind limb [18]: 0.00
- Average detailed clinical score, score [18]: 0.00
- Average overall clinical score [18]: 0
- Average animal paw volume [19]: 1.38 mL
- Average animal paw volume percent change (%) [19]: 4.24%
- Average animal paw volume [20]: 1.37 mL
- Average animal paw volume percent change (%) [20]: 4.35%
- Average animal paw volume [21]: 1.36 mL
- Average animal paw volume percent change (%) [21]: 3.32%
- Average animal paw volume [22]: 1.42 mL
- Average animal paw volume percent change (%) [22]: 6.44%
- Average animal paw volume [23]: 1.36 mL
- Average animal paw volume percent change (%) [23]: 3.50%
- Average animal paw volume [24]: 1.37 mL
- Average animal paw volume percent change (%) [24]: 4.40%
- Average detailed clinical score, left forelimb [25]: 0.00
- Average detailed clinical score, left hind limb [25]: 0.13
- Average detailed clinical score, right forelimb [25]: 0.25
- Average detailed clinical score, right hind limb [25]: 0.00
- Average detailed clinical score, score [25]: 0.38
- Average overall clinical score [25]: 0
- Overall Clinical Score (Day 12, CIA + Compound A 1 mg/kg, 1 mg/kg): 0 (7×) and 1
- Average detailed clinical score, left forelimb [26]: 0.00
- Average detailed clinical score, left hind limb [26]: 0.25
- Average detailed clinical score, right forelimb [26]: 0.00
- Average detailed clinical score, right hind limb [26]: 0.25
- Average detailed clinical score, score [26]: 0.50
- Average overall clinical score [26]: 0
- Overall Clinical Score (Day 12, CIA + Compound A 3 mg/kg, 3 mg/kg): 0
